Measurements from ChEMBL document CHEMBL5465560, “Selectivity Literature for EUbOPEN Chemogenomic Library” (2024).
pIC50: −log10 of the molar value.

Assays:
[1] = target: Phosphatidylinositol 4-phosphate 3-kinase C2 domain-containing subunit beta (Homo sapiens) (UniProt O00750); experiment: Selectivity interaction (KinomeScan (DiscoverX)) EUB0001079a PIK3C2B; details: at 1 µM
[2] = target: Cyclin-dependent kinase 17 (Homo sapiens) (UniProt Q00537); experiment: Selectivity interaction (KinomeScan (DiscoverX)) EUB0001079a CDK17; details: at 1 µM
Chain of Cyclin-dependent kinase 17 (Homo sapiens) (Q00537 whole entry, looked up): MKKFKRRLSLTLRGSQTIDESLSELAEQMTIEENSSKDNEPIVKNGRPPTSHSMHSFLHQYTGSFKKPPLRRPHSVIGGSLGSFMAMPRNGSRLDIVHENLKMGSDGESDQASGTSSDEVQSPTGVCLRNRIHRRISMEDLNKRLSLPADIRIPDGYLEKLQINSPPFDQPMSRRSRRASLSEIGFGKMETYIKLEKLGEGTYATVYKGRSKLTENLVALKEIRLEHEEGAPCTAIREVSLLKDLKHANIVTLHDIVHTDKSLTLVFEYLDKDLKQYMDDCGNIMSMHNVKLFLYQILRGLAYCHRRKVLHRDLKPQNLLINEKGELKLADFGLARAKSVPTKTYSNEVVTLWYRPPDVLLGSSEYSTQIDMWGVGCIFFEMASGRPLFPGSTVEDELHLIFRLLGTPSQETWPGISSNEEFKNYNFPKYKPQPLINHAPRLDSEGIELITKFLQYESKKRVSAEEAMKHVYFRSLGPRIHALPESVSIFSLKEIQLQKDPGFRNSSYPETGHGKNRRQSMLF

[3] = target: Insulin-like growth factor 1 receptor (Homo sapiens, UniProt P08069); experiment: Selectivity interaction (Kinase panel (33PanQinase(R) Activity Assay)) EUB0000877a IGF1R
Chain of Insulin-like growth factor 1 receptor (P08069 31-736 limits assumed): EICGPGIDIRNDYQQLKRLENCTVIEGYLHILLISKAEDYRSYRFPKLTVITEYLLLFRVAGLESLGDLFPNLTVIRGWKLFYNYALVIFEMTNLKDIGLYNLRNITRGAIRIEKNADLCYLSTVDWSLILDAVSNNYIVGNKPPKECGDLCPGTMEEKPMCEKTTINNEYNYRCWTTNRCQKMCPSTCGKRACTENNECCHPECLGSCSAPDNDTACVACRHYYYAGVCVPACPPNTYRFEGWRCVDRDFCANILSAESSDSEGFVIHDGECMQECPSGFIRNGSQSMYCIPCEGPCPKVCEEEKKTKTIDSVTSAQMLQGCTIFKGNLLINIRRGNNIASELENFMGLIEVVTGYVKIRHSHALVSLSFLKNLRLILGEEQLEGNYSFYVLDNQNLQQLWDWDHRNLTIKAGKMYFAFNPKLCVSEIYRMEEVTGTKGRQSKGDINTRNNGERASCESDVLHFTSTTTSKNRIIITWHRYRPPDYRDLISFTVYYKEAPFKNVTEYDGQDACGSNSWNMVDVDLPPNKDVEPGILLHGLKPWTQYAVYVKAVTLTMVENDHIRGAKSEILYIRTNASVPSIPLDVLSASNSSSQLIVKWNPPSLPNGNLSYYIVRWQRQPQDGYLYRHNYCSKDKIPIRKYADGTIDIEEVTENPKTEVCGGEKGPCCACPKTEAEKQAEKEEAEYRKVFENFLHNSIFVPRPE
Chain of Insulin-like growth factor 1 receptor (P08069 741-1367 limits assumed): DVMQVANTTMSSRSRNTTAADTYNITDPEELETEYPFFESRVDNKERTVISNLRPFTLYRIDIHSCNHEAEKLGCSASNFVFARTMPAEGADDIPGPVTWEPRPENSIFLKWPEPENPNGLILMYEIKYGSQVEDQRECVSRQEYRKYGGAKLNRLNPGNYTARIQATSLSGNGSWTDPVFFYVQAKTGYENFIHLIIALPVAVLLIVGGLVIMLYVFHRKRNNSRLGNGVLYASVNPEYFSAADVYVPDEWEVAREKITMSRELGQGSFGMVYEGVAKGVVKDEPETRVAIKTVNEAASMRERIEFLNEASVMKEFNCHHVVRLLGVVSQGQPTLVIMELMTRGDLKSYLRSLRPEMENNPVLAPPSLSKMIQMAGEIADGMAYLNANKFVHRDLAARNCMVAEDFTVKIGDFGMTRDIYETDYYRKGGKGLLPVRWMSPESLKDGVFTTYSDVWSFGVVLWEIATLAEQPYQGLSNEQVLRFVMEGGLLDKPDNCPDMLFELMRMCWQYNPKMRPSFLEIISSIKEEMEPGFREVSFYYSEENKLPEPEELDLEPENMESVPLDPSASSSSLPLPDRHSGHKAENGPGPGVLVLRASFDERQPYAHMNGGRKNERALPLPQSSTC

[4] = target: T1, Histone-lysine N-methyltransferase SETD7 (Homo sapiens) (UniProt Q8WTS6); experiment: Selectivity interaction (Methyltransferase screen (Scintillation proximity assays)) EUB0000255b SETD7
T1 sequence (whole entry): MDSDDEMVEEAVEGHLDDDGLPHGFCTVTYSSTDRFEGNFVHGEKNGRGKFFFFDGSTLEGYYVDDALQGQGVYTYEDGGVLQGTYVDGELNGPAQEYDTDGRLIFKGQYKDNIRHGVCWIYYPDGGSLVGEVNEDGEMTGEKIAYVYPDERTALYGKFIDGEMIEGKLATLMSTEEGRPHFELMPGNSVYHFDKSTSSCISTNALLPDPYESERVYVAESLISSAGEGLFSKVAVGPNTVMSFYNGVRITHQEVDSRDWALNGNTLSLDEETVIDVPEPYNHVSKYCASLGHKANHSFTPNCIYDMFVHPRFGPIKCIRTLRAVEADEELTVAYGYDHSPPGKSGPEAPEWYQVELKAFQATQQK

[5] = target: T2, Ephrin type-A receptor 6 (Homo sapiens) (UniProt Q9UF33); experiment: Selectivity interaction (KinomeScan (DiscoverX)) EUB0000618a EPHA6; details: at 10 µM
T2 sequence (whole entry): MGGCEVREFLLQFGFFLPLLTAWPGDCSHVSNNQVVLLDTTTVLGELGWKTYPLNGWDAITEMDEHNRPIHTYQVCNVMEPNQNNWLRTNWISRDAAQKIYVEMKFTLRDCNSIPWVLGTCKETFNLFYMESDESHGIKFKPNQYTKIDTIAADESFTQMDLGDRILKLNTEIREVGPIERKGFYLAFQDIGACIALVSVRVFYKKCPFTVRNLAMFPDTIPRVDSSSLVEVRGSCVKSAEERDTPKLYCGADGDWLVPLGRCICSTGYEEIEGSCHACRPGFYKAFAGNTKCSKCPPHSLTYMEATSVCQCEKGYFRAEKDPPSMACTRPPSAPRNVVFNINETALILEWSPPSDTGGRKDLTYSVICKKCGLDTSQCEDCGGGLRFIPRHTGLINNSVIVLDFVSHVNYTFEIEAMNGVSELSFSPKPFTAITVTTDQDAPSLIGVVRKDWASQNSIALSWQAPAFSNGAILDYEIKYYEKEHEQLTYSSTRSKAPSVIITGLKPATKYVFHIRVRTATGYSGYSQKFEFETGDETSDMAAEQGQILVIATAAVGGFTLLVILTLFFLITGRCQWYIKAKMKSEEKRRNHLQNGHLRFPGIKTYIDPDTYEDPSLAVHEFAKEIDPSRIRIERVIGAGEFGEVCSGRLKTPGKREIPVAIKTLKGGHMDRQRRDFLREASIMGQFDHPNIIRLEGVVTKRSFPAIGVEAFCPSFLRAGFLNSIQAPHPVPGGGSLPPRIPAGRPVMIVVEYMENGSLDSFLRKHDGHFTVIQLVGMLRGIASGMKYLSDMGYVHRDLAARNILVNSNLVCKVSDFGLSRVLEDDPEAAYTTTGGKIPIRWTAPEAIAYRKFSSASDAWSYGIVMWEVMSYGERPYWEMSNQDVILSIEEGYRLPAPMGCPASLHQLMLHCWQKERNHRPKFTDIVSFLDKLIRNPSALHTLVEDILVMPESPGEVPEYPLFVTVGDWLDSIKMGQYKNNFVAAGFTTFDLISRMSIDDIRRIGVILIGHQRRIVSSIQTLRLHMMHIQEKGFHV

[6] = target: Mitogen-activated protein kinase kinase kinase kinase 1 (Homo sapiens) (UniProt Q92918); experiment: Selectivity interaction (KinomeScan (DiscoverX)) EUB0000655a MAP4K1; details: at 10 µM
Chain of Mitogen-activated protein kinase kinase kinase kinase 1 (Homo sapiens) (Q92918 whole entry, looked up): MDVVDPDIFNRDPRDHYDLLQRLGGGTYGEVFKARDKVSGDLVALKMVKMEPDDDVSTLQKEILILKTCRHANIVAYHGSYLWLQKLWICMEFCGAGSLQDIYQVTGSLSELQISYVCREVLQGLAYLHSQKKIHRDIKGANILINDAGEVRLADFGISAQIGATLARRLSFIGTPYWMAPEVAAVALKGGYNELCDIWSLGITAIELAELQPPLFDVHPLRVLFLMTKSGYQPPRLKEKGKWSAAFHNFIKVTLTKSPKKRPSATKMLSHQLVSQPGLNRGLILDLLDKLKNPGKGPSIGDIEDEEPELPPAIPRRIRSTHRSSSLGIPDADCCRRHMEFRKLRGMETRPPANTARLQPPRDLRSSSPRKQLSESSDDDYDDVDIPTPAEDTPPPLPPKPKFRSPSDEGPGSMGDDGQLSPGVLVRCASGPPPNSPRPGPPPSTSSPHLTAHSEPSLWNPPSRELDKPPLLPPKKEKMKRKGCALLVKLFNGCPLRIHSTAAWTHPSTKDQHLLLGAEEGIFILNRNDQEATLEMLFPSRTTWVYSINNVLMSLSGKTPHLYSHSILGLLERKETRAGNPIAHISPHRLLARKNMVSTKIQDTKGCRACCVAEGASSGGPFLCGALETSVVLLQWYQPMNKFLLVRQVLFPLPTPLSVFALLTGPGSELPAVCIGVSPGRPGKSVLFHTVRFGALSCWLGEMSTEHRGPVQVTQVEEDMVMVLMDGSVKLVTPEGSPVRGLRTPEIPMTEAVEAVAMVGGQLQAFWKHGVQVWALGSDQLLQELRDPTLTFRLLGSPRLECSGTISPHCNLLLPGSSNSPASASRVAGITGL

[7] = target: T3, Peripheral plasma membrane protein CASK (Homo sapiens) (UniProt O14936); experiment: Selectivity interaction (KinomeScan (DiscoverX)) EUB0000092b CASK; details: at 10 µM
T3 sequence (whole entry): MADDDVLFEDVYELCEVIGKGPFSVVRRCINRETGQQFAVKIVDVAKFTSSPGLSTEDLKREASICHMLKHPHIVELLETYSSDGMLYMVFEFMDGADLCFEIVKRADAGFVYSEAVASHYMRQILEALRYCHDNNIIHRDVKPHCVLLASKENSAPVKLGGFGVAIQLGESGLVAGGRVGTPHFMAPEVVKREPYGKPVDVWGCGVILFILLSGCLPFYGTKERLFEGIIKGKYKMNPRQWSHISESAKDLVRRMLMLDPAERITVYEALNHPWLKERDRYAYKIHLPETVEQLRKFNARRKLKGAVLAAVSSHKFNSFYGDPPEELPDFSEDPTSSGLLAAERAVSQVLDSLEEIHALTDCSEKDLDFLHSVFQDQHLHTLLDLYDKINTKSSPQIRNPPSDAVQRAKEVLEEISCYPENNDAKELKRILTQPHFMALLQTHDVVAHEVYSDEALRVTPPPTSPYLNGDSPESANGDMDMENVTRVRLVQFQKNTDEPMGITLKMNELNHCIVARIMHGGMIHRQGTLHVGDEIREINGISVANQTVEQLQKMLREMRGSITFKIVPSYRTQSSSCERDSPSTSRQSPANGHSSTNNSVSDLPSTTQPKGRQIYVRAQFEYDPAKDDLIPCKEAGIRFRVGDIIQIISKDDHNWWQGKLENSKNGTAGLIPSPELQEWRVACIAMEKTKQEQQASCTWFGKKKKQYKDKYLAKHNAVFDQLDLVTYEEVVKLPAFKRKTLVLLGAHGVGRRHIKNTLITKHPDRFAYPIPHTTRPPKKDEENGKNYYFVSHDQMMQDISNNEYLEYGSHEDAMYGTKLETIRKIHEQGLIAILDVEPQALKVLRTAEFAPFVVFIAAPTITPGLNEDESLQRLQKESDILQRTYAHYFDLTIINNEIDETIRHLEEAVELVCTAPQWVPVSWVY

Chain of Phosphatidylinositol 4-phosphate 3-kinase C2 domain-containing subunit beta (Homo sapiens) (O00750 whole entry, the tested form may be a part): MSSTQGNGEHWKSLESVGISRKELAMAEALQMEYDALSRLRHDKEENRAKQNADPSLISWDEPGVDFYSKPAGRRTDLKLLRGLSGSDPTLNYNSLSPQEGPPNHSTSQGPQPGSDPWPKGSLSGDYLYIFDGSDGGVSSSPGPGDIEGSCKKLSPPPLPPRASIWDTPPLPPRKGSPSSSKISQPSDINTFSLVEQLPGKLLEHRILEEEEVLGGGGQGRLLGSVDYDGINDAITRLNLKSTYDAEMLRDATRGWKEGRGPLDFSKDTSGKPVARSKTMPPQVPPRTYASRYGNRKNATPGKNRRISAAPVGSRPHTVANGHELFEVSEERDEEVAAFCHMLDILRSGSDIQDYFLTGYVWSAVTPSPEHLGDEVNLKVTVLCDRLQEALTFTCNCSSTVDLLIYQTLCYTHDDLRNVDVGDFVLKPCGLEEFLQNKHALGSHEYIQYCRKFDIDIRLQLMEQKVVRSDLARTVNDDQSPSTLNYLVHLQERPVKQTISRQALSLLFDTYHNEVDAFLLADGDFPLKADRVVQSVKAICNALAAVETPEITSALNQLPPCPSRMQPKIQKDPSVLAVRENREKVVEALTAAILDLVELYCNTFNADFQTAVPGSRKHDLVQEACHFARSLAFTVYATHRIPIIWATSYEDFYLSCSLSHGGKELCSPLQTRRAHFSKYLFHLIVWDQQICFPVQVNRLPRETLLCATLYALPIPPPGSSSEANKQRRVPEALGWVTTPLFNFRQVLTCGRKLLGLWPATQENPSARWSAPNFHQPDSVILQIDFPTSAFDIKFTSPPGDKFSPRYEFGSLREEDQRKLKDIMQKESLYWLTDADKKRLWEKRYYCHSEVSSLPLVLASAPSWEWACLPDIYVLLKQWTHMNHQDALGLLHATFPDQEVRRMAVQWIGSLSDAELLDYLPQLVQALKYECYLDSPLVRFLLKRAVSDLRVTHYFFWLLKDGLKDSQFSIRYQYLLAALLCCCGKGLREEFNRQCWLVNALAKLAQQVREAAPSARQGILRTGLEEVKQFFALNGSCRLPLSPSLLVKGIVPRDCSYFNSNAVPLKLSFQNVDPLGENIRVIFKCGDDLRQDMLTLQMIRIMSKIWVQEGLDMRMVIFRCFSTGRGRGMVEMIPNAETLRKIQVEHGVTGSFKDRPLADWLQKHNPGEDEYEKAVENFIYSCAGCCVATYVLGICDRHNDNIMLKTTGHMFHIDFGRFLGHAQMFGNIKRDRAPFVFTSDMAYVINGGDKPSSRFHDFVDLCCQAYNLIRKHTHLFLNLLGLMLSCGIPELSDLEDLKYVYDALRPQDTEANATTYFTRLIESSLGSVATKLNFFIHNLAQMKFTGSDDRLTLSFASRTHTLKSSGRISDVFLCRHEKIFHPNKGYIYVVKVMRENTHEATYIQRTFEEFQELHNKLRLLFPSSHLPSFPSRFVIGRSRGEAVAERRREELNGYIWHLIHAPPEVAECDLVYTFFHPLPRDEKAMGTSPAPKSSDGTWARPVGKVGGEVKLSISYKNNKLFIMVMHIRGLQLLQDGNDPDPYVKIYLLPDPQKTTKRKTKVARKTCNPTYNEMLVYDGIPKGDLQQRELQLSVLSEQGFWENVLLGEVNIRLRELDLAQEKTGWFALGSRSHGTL

## Nc1cnc(N2CCc3cc(S(=O)(=O)Nc4c(F)cc(Cl)cc4F)cc(N4CCCC4=O)c32)nc1 [TP-020n]
[1]
  % of control: 83%
[2]
  % of control: 100%

## CCC(=O)N1CC[C@H](Nc2ncnc3c2CN(c2cnc(OC)c(C(F)(F)F)c2)CC3)C1 [LENIOLISIB]
[3]
  pIC50: < 5.00

## COCCN1CCC(c2cc(CN(C)C(=O)c3cccc(Oc4ccccc4)c3)ccn2)CC1
[4]; at 1 µM
  % activity: > 95%
[4]; at 10 µM
  % activity: > 90%

## O[C@H]1CC[C@H](Nc2ncc3nc(Nc4c(F)cc(F)cc4F)n([C@H]4CCOC4)c3n2)CC1
[5]
  % of control: 79%

## CN(C)CCOc1ccc(-c2nc(-c3ccncc3)c(-c3ccc4c(c3)CC/C4=N\O)[nH]2)cc1
[6]
  % of control: 97%

## CCC(=O)N1CCN(c2ccc(-n3c(=O)ccc4cnc5ccc(-c6cnc7ccccc7c6)cc5c43)cc2C(F)(F)F)CC1
[7]
  % of control: 100%
